ChEMBL document CHEMBL3137381, “MMV Box Onchocerca lienalis screening set”

Tests used:
Type in all cases: functional
[1] = tested on: Onchocerca lienalis; test: MMV: Percent motility assay at a compound concentration of 1.9e-7 M. Activity score legend: 3: Active, 2: Moderately active; 1: Inactive, 0: Toxic; conditions: at 0.19 µM
[2] = tested on: Onchocerca lienalis; test: MMV: Percent motility assay at a compound concentration of 7.8e-7 M. Activity score legend: 3: Active, 2: Moderately active; 1: Inactive, 0: Toxic; conditions: at 0.78 µM
[3] = tested on: Onchocerca lienalis; test: MMV: Percent motility assay at a compound concentration of 3.1e-6 M. Activity score legend: 3: Active, 2: Moderately active; 1: Inactive, 0: Toxic; conditions: at 3.1 µM
[4] = tested on: Onchocerca lienalis; test: MMV: Percent motility assay at a compound concentration of 1.25e-5 M. Activity score legend: 3: Active, 2: Moderately active; 1: Inactive, 0: Toxic; conditions: at 12.5 µM

With `O=C(Nc1ccccc1O)c1ccc(Oc2cccc(C(=O)Nc3ccccc3O)c2)cc1` the Motility [1] was 100%, the Motility [2] was 100% and the Motility [3] was 100%. The Motility [4] was 100%.
In the case of `Cl.N=c1n(CCN2CCCCC2)c2ccccc2n1CC(O)c1cccc(Br)c1` (centres undefined), the Motility [1] is reported as 100%, the Motility [2] is reported as 100% and the Motility [3] is reported as 100%. It also gave a Motility [4] of 100%.
`COc1cccc(O)c1CN1CCC2(CCCN(Cc3ccc(F)cc3)C2)C1` (centres undefined) was tested, and the Motility [1] was 100%, the Motility [2] was 100% and the Motility [3] was 100%. For the same molecule, the Motility [4] was 100%.
`COc1cccc(Nc2nc(NCCO)c3ccccc3n2)c1.Cl` showed a Motility [1] of 100%, a Motility [2] of 100% and a Motility [3] of 100%. For the same molecule, the Motility [4] was 100%.
`Cc1ccc(-c2cc(C(=O)Nc3ccc(S(=O)(=O)N4CCCCC4)cc3)[nH]n2)c(O)c1` showed a Motility [1] of 100%, a Motility [2] of 100% and a Motility [3] of 100%. It also gave a Motility [4] of 100%.
With `O=C(NCc1ccco1)C1CCN(S(=O)(=O)c2ccc(Cl)cc2)CC1` the Motility [1] was 100%, the Motility [2] was 100% and the Motility [3] was 100%. The Motility [4] was 100%.
`COc1ccc(C(=O)Nc2ccc3nc(N4CCCCC4)cc(C)c3c2)cc1OC` showed a Motility [1] of 100%, a Motility [2] of 100% and a Motility [3] of 100%. For the same molecule, the Motility [4] was 100%.
`COc1ccc(N2CCN(C(CNC(=O)C3CCCCC3)c3ccc4c(c3)OCO4)CC2)cc1` (centres undefined) showed a Motility [1] of 100%, a Motility [2] of 100% and a Motility [3] of 100%. The Motility [4] was 100%.
`FC(F)(F)c1ccc(Nc2nnnc3ccccc23)cc1` showed a Motility [1] of 100%, a Motility [2] of 100% and a Motility [3] of 100%. The Motility [4] was 100%.
`c1ccc(-c2ccc(-c3nc4ccccc4[nH]3)cc2)cc1` gave a Motility [1] of 100%, a Motility [2] of 100% and a Motility [3] of 100%. The Motility [4] was 66.6%.
`COc1cccc(NC(=O)Cn2c(C)c(C#N)c3ccccc32)c1` gave a Motility [1] of 100%, a Motility [2] of 100% and a Motility [3] of 100%. The Motility [4] was 100%.
Molecule `Cn1c(=O)c2cc(C(=O)NCCCN3CCCCCC3)sc2c2ccccc21` has a Motility [1] of 100%, a Motility [2] of 100% and a Motility [3] of 100%. For the same molecule, the Motility [4] was 100%.
`Cc1[nH]c(-c2ccc(F)cc2)cc1C(=O)NC1CCN(Cc2ccccc2)CC1` gave a Motility [1] of 100%, a Motility [2] of 100% and a Motility [3] of 100%. For the same molecule, the Motility [4] was 100%.
With `COc1ccc(CCN2CCC(CN(C)Cc3cnn(-c4ccccc4)c3)CC2)cc1` the Motility [1] was 100%, the Motility [2] was 100% and the Motility [3] was 100%. For the same molecule, the Motility [4] was 100%.
Molecule `O=C(NC(c1ccccc1)c1ccc2cccnc2c1O)c1ccccc1` (centres undefined) has a Motility [1] of 100%, a Motility [2] of 100% and a Motility [3] of 33.33%. The Motility [4] was 26.66%.
`CCOc1cc(Br)c(C(C)NC(=O)c2cccc(OC)c2)cc1OCC` (centres undefined) gave a Motility [1] of 100%, a Motility [2] of 100% and a Motility [3] of 100%. It also gave a Motility [4] of 100%.
`CC(C)=CCN1CCC(C(=O)Nc2ccc(-c3nc4ccccc4[nH]3)cc2)CC1` showed a Motility [1] of 100%, a Motility [2] of 100% and a Motility [3] of 100%. For the same molecule, the Motility [4] was 100%.
For `CCOc1cc(Cl)c(C(C)NC(=O)c2cccc(OC)c2)cc1OCC` (centres undefined), the Motility [1] was 100%, the Motility [2] was 100% and the Motility [3] was 100%. It also gave a Motility [4] of 100%.
Work on `O=C(CCc1ccco1)NC1CCN(CC2(c3ccc(Cl)cc3)CCC2)CC1` yielded a Motility [1] of 100%, a Motility [2] of 100% and a Motility [3] of 100%. For the same molecule, the Motility [4] was 100%.
Molecule `FC(F)(F)c1cccc(Nc2nc(-c3ccccc3)nc3ncccc23)c1` has a Motility [1] of 100%, a Motility [2] of 100% and a Motility [3] of 100%. It also gave a Motility [4] of 100%.
`CCN1CCN(c2cc(C)c3cc(NC(=O)c4ccc(OC)c(OC)c4)ccc3n2)CC1` gave a Motility [1] of 100%, a Motility [2] of 100% and a Motility [3] of 100%. The Motility [4] was 100%.
Work on `Cc1ccc(Cl)cc1N1CCN(CCCNC(=O)C2CCN(c3nc4ccccc4[nH]3)CC2)CC1` yielded a Motility [1] of 100%, a Motility [2] of 100% and a Motility [3] of 100%. The Motility [4] was 100%.
`COc1ccc(CNC2CCN(c3ccc(NC(=O)c4cccc(Cl)c4)cc3)CC2)cc1OC` gave a Motility [1] of 100%, a Motility [2] of 100% and a Motility [3] of 100%. It also gave a Motility [4] of 100%.
Molecule `Cc1ccc(CSCc2ccc(C(=O)NC3CC3)o2)cc1` has a Motility [1] of 100%, a Motility [2] of 100% and a Motility [3] of 100%. For the same molecule, the Motility [4] was 100%.
Molecule `CC(NCc1ccccc1)c1cc(Cl)ccc1O` (centres undefined) has a Motility [1] of 100%, a Motility [2] of 100% and a Motility [3] of 100%. For the same molecule, the Motility [4] was 100%.
In the case of `O=C(c1ccccc1F)N(Cc1ccc(Cl)cc1)c1ccccn1`, the Motility [1] is reported as 100%, the Motility [2] is reported as 100% and the Motility [3] is reported as 100%. The Motility [4] was 100%.
